Reference: the NIST ThermoML archive (doi:10.1016/j.jct.2012.03.020)
± gives the expanded uncertainty stated by the source.

How the values were obtained:
[1] = refractive index (Na D-line) (dimensionless); conditions: 101.33 kPa, Liquid, Standard Abbe refractometry
[2] = for mass density: 101.33 kPa, Liquid, Pycnometric method; for Normal melting temperature: Crystal, visual observation

| refractive index ([1]; 298.15 K) | refractive index ([1]; 303.15 K) | refractive index ([1]; 308.15 K) | refractive index ([1]; 313.15 K) | mass density ([2]; 298.15 K) | mass density ([2]; 303.15 K) | mass density ([2]; 308.15 K) | mass density ([2]; 313.15 K) | Normal melting temperature [2] | Structure (SMILES) |
| --- | --- | --- | --- | --- | --- | --- | --- | --- | --- |
| 1.4371 ± 0.0004 | 1.4336 ± 0.0004 | 1.4302 ± 0.0004 | 1.4286 ± 0.0004 | 1437 ± 0.9 kg/m3 | 1433.5 ± 0.9 kg/m3 | 1430.2 ± 0.9 kg/m3 | 1428.5 ± 0.9 kg/m3 | 117.00 ± 2 °C | Cc1ccc(C(=O)N(O)c2ccccc2)cc1[N+](=O)[O-] [N-hydroxy-4-methyl-3-nitro-N-phenylbenzamide] |
| 1.427 ± 0.0004 | 1.4253 ± 0.0004 | 1.423 ± 0.0004 | 1.421 ± 0.0004 | 945.2 ± 0.9 kg/m3 | 939.7 ± 0.8 kg/m3 | 935.6 ± 0.8 kg/m3 | 930.2 ± 0.9 kg/m3 |  | CN(C)C=O [dimethylformamide] |
|  |  |  |  |  |  |  |  | 168.00 ± 2 °C | O=C(c1ccc([N+](=O)[O-])cc1)N(O)c1ccccc1 [N-hydroxy-4-nitro-N-phenylbenzamide] |
| 1.4269 ± 0.0004 | 1.4257 ± 0.0004 | 1.4241 ± 0.0004 | 1.4221 ± 0.0004 | 945.8 ± 0.6 kg/m3 | 940.4 ± 0.6 kg/m3 | 936.3 ± 0.6 kg/m3 | 931.2 ± 0.6 kg/m3 | 121.00 ± 2 °C | O=C(c1ccccc1)N(O)c1ccccc1 [N-phenylbenzohydroxamic acid] |
